Measured values as given in US20080031968A1, “Methods for increasing cellular energy expenditure” (priority 2005, published 2008).

Assays:
SHP+/+ and SHP-/- mice = assay: FXR agonists in SHP+/+ and SHP-/- mice; type: in vivo, mouse; conditions: for hepatic expression of SREBP-1c, ME, CYP7A1 and ANGPTL3: 1-day treatment
Experimental: (§1) Male C57BL/6J, KK-Ay, and ob/ob (C57BL/6J background) mice, 6-10 weeks of age, were obtained from Elevage Janvier (Le Genest St. Isle, France), CLEA Japan Inc. (Tokyo, Japan), and The Jackson Laboratory (Bar Harbor, Me., USA), respectively. All mice were maintained in a temperature-controlled (23° C.) facility with a 12-hour light/dark cycle and were given free access to food and water. The study protocols were approved by the institutional review boards. The body weight and food intake were measured every second day. The control and high-fat diet was obtained from UAR (Villemoisson sur Orge, France). […] The mice were fasted 4 hours before harvesting blood for subsequent lipid measurements, and tissues for RNA isolation, lipid measurements, and histology.

C57BL/6J mice = assay: Diet-induced obesity in C57BL/6J mice; type: in vivo, mouse
Experimental: Male C57BL/6J and KK-Ay mice, 6-7 weeks of age, were obtained from Charles River Laboratories France (l'Arbresle, France) and CLEA Japan Inc. (Tokyo, Japan), respectively. […] All mice were maintained in a temperature-controlled (23° C.) facility with a 12 h light/dark cycle and were given free access to food and water. The control and high-fat diet was obtained from UAR (Villemoison surOrge, France). […] GW4064 was suspended in peanut oil and mixed with the high fat diet at a concentration of 180 mg per kg of food. […] The mice were fasted 4 h before harvesting blood for subsequent blood measurements, and tissues for RNA isolation, lipid measurements and histology. Oxygen consumption was measured using the Oxymax apparatus (Columbus Instruments, Columbus, Ohio).
(§2) An OGTT was performed in animals that were fasted overnight. Glucose was administered by gavage at a dose of 2 g/kg. An IPITT was done in 4 h fasted animals. Insulin was injected at a dose of 0.75 U/kg. Glucose quantification was done with the Maxi Kit Glucometer 4 (Bayer Diagnostic, Puteaux, France) or Glucose RTU (bioMérieux Inc., Marcy l'Etoile, France). Plasma insulin concentrations were measured using ELISA (Cristal Chem Inc., Downers Grove, Ill.). Nonesterified fatty acids, triglycerides, ketone bodies, BA and total cholesterol were determined by enzymatic assays (Roche, Mannheim, Germany). cAMP was measured using the cAMP-Screen system (Applied Biosystems, Bedford, Mass.).
Pieces of mouse tissues were fixed in Bouin's solution, dehydrated in ethanol, embedded in paraffin, and cut at a thickness of 5 μm. Sections were deparaffinized, rehydrated, and stained with haematoxylin and eosin. Transmission electron microscopy was then performed.

KK-Ay mice [1] = assay: CA or GW4064 treatment of KK-Ay mice, serum lipids; type: in vivo, mouse; conditions: chow-fed KK-Ay mice, 1 week, intraperitoneal 10 mg/kg daily
Experimental: as §1
For measurement of liver TGs and cholesterol content, a liver was homogenized in chloroform/methanol (2:1 v/v) using a Polytron tissue grinder (Kinematica AG, Luzern, Switzerland). Lipid extracts were prepared by the classical Folch method. Extracts were dried under N2 flow and resuspended in isopropanol.

rats = rats treated for 7 days; cited from earlier work
KK-Ay mice [2] = assay: In vivo VLDL TG production (Tyloxapol) in KK-Ay mice; set-up: species or system mouse; conditions: 1-week administration of GW4064
HSMM [3] = assay: D2 activity in human skeletal muscle myoblasts; type: cell-based; conditions: 16 h incubation
Experimental: HSMM were obtained from Cambrex (Walkersville, Md.) and were cultured according to the suppliers instructions. D2 activity measurements were performed after a 16 h incubation with the indicated compounds. For the cAMP measurements, cells were preincubated 12 h in Opti-MEM (Life Technologies, Cergy Pontoise, France), supplemented with 1 mM IBMX. Then medium was changed and cells were incubated for another 1 h in Opti-MEM with 1 mM IBMX, after which the medium was replaced for Opti-MEM with 1 mM IBMX and the indicated compounds. After 30 minutes the cells were lysed for cAMP analysis.

BAT cells = assay: Isolated mouse BAT cells, D2 mRNA, D2 activity and cAMP; type: cell-based; conditions: BAT cells
Experimental: as §2

HSMM [4] = assay: cAMP levels in human skeletal muscle myoblasts; type: cell-based; conditions: 1 mM IBMX, 30 minutes
Experimental: HSMM were obtained from Cambrex (Walkersville, Md.) and were cultured according to the suppliers instructions. […] For the cAMP measurements, cells were preincubated 12 h in Opti-MEM (Life Technologies, Cergy Pontoise, France), supplemented with 1 mM IBMX. Then medium was changed and cells were incubated for another 1 h in Opti-MEM with 1 mM IBMX, after which the medium was replaced for Opti-MEM with 1 mM IBMX and the indicated compounds. After 30 minutes the cells were lysed for cAMP analysis.

ob/ob mice = assay: GW4064 treatment of ob/ob mice, serum TG; type: in vivo, mouse; conditions: chow-fed ob/ob mice, 1 week, intraperitoneal 10 mg/kg daily
Experimental: Male C57BL/6J, KK-Ay, and ob/ob (C57BL/6J background) mice, 6-10 weeks of age, were obtained from Elevage Janvier (Le Genest St. Isle, France), CLEA Japan Inc. (Tokyo, Japan), and The Jackson Laboratory (Bar Harbor, Me., USA), respectively. All mice were maintained in a temperature-controlled (23° C.) facility with a 12-hour light/dark cycle and were given free access to food and water. The study protocols were approved by the institutional review boards. The body weight and food intake were measured every second day. The control and high-fat diet was obtained from UAR (Villemoisson sur Orge, France). The control diet (EQ12310) contained 16.8% protein, 73.5% carbohydrate, and 4.8% fat, whereas the high-fat diet (EQ/ID12309) contained 23.0% protein, 35.5% carbohydrate, and 35.9% fat. For treatment with bile acids, mice were fed diets with 0.5% (w/w) CA. The mice were fasted 4 hours before harvesting blood for subsequent lipid measurements, and tissues for RNA isolation, lipid measurements, and histology. Male SHP−/−mice and littermate SHP+/+ controls (C57/BL6-A129/SvJ mixed strain) of 8 weeks were fed the CA diet as just described or gavaged with GW4064 dissolved in corn oil at 30 mg/kg. […]
Serum total cholesterol, TGs, and lipoprotein cholesterol and TG profiles were measured as described (Rocchi, et al., Mol Cell. 8:737-747 (2001); Picard, et al., Cell 111:931-941 (2002)). […]

BAT of C57BL/6J mice = assay: BAT gene expression by microarray and Q-RT-PCR; type: in vivo, mouse; conditions: GW4064 treatment
Experimental: For microarray analysis, RNA was isolated from BAT using the RNeasy mini kit (QIAGEN, Courtaboeuf, France). Equal amounts of RNA from mice in each group were pooled (n=3 or 4 mice) and used for cDNA synthesis. After second-strand cDNA synthesis (Life Technologies, Cergy Pontoise, France), in vitro transcription was performed with biotinylated UTP and CTP (Enzo Diagnostics, Farmingdale, N.Y.). Fragmented cRNA samples were hybridized to the Affymetrix MOE430A microarray. The raw data was analyzed using the Microarray Suite Software version 5.0 (MAS5.0, Affymetrix, Santa Clara, Calif.).

## CC(C)c1onc(-c2c(Cl)cccc2Cl)c1COc1ccc(/C=C/c2cccc(C(=O)O)c2)c(Cl)c1 [GW4064]
SHP+/+ and SHP-/- mice; SHP+/+ mice, 0, 3 and 7 days
  serum TGs: significantly lowered
SHP+/+ and SHP-/- mice; SHP+/+ mice
  hepatic expression of SREBP-1c, ME, CYP7A1 and ANGPTL3: significantly reduced
SHP+/+ and SHP-/- mice; SHP-/- mice
  decrease in serum TGs: completely abolished
  hepatic expression of SREBP-1c, ME, CYP7A1 and ANGPTL3: no decrease
C57BL/6J mice; high fat diet supplemented with GW4064, 15 mg/kg daily
  effect against diet-induced obesity: no protective effect
C57BL/6J mice; mice on a high fat diet with GW4064
  body weight gain: significantly increased
KK-Ay mice [1]
  serum TG levels: potently lowered
rats
  plasma TG: decreased
KK-Ay mice [2]
  VLDL secretion: significantly lowered
HSMM [3]
  D2 activity: did not induce
BAT cells
  cAMP levels: did not increase
HSMM [4]
  cAMP levels: did not increase
ob/ob mice
  serum TG levels: potently lowered
BAT of C57BL/6J mice
  thermogenic gene response: did not result in an induction
